# Data: patent US12617759B2, “Modifier of four-membered ring derivative, preparation method and application thereof” (Shanghai Hansoh Biomedical Co., Ltd., priority 2019, dated 2026)
# pEC50, pIC50: −log10 of the molar value.
# Columns and labels:
# [1] = Stability in human liver microsome in vitro; type: in vitro ADME; conditions: for half-life at 1 μM / microsomal CLint at 1 μM: human liver microsomes, pH 7.4, 1 μM compound, NADPH/UDPGA; for half-life at 1 μM: read-out: Half life (t1/2); for microsomal CLint at 1 μM: read-out: Intrinsic clearance rate (CLint)
# Description: (§1) To evaluate the metabolic stability of the compounds of the present invention in liver microsome in vitro.
# (§2) Formulation of the working solution of the compound: 2 μL of the stock solution of the compound was added to 998 μL of phosphate buffer, and the final concentration was 20 μM.
# (§3) 78.1 μL of 20 mg/mL microsome was diluted to 2.5 mL with 100 mM phosphate buffer and mixed well, and the final concentration was 0.625 mg/mL.
# (§4) 33.3 mg of NADPH and 25.8 mg of UDPGA were weighed respectively, followed by the addition of 2 mL of 100 mM phosphate buffer. The final concentrations were 20 mM.
# (§5) 1 mg of Alamethicin was weighed, to which 200 μL of DMSO was added to obtain a 5 mg/mL solution. 10 μL of this solution was added to 990 μL of phosphate buffer (pH 7.4), and the final concentration was 50 μg/mL.
# (§6) 400 μL of the formulated liver microsome, 25 μL of the working solution of the compound (10 μM) and 25 μL of Alamethicin (50 μg/mL) were added to a 96-well plate successively, which was then pre-incubated at 37° C. for 10 min. 50 μL of the formulated NADPH/UDPGA was added to initiate the reaction, and the plate was incubated at 37° C. The total volume of the reaction system was 500 μL. The final contents of the components are as follows:
# (§7) […] The resulting sample was centrifuged at 4000 g for 10 min, and the supernatant was collected for LC-MS/MS analysis.
# 5-HT2A receptor [2] = biological target: T1, 5-HT2A receptor (Homo sapiens, UniProt P28223); experiment: Radioligand binding assay, 5-HT2A receptor ([3H]-Ketanserin); set-up: purchased PerkinElmer; conditions: human 5-HT2A receptor membrane, read-out: 5HT-2A Binding IC50
# Description: The objective of this test example is to determine the affinity of the compounds for 5-HT2A receptor.
# (§8) 0.5 to 5 μL of the test compounds (0.005 nM to 100 nM, 10 concentrations in total) and 100 μL of buffer were added to a 96-well assay plate. 0.5 μL of cell membrane and 300 μL of buffer were added to each well. [^3H]-Ketanserin was added to the buffer, and the plate was incubated at 27° C. for 30 min. The […]-96 GF/B filter plate pre-incubated with 0.5% PEI for 1 h was washed twice with the buffer (1 mL/well). The cell membrane suspension was added to the […]-96 GF/B filter plate, washed 4 times, and incubated at 55° C. for 10 min. 40 μL of ULTIMA GOLD was added to each well, and liquid scintillation counting was carried out.
# (§9) The CPM (Counts per minute) values were determined by TopCount. […] The 10 concentrations of the compound were from 100 nM to 0.005 nM after 3-fold dilution of the reaction system. The percent inhibition rate and ten-point concentration data were fitted to the parametric nonlinear logistic equation by using GraphPad prism to calculate the IC50 values of the compound.
# D3 receptor = biological target: T2, D3 receptor (Homo sapiens, UniProt P35462); experiment: cAMP content in cells stably expressing D3 receptors (CHO-D3); type: cell-based; conditions: forskolin, agonistic activity
# T2 construct: expressed in transfected cells; host or cells: CHO (CHO-D3, G418 selection)
# Description: To determine the activation effect of the compounds on D3 receptor.
# 3. Experimental Method: • 1. Preparation of the buffer: 1*HBSS+20 mM HEPES+0.1% BSA+500 μM IBMX. • Complete medium: Ham's F12K+10% fetal bovine serum+1*penicillin-streptomycin+400 µg/mL G418. • 2. CHO-D3 cells were cultured in the complete medium at 37° C., 5% C02. After TrypLE digestion, the cells were resuspended in the experimental buffer, and seeded into a 384-well cell culture plate at a seeding density of 8000 cells per well. • 3. The experimental buffer (1*HBSS, 0.1% BSA, 20 mM HEPES and 500 μM IBMX) was prepared. The compound was diluted with the buffer. 2.5 μL of the compound solution was added to each well, and the plate was incubated at 37° C. for 10 minutes. The forskolin was diluted to 8 μM (8*) with the experimental buffer. 2.5 μL of the diluted 8*forskolin was added, and the plate was incubated at 37° C. for 30 minutes. cAMP-d2 and Anti-cAMP-Eu^3+ were thawed, and diluted by 20-fold with the lysis buffer. 10 μL of cAMP-d2 was added to the experimental well, followed by the addition of 10 μL of Anti-cAMP-Eu^3+. The reaction plate was centrifuged at 200 g for 30 s at room temperature, and left to stand at 25° C. for 1 h. Data was collected using Envision. 4. […]
# 5-HT2A receptor [3] = biological target: T1, 5-HT2A receptor; experiment: Calcium ion mobility in cells stably expressing 5-HT2A receptors (Flp-In-CHO-5HT2A, FLIPR); type: cell-based; set-up: expressed in transfected cells; conditions: Flp-In-CHO-5HT2A stable pool, inhibition of 5HT response
# Description: To determine the inhibitory effect of the compounds on 5-HT2A receptor.
# 3. […] Probenecid and BSA were added fresh on the day of the experiment. […] 4. Experimental Data Processing Method:
# The calcium signal values were determined by FLIPR. The calculated output for each sampling time point in the experiment was the ratio of the 340/510 nm wavelength signals to 380/510 nm wavelength signals. The maximum minus minimum calculation was derived from the ratio signal curve. The percent inhibition rate and ten-point concentration data were fitted to the parametric nonlinear logistic equation by using GraphPad prism to calculate the IC50 values of the compound.
# [4] = biological target: T3, Human Dopamine D3 Receptor membrane (Homo sapiens, UniProt P35462); experiment: Radioligand binding assay, dopamine D3 receptor ([3H]-methylspiperone)
# T3 construct: purchased PerkinElmer ES-173-M400UA
# Description: The objective of this test example is to determine the affinity of the compounds for dopamine D3 receptor.
# as §8, with “[^3H]-methylspiperone” for “[^3H]-Ketanserin”
# as §9
# [5] = Stability in rat liver microsome in vitro; type: in vitro ADME, SD rat; conditions: for half-life at 1 μM / microsomal CLint at 1 μM: SD, rat liver microsomes, pH 7.4, 1 μM compound, NADPH/UDPGA; for half-life at 1 μM: read-out: Half life (t1/2); for microsomal CLint at 1 μM: read-out: Intrinsic clearance rate (CLint)
# Description: as §1, §2, §3, §4, §5, §6, §7
# [6] = Stability in dog liver microsome in vitro; type: in vitro ADME; conditions: for half-life at 1 μM / microsomal CLint at 1 μM: dog liver microsomes, pH 7.4, 1 μM compound, NADPH/UDPGA; for half-life at 1 μM: read-out: Half life (t1/2); for microsomal CLint at 1 μM: read-out: Intrinsic clearance rate (CLint)
# Description: as §1, §2, §3, §4, §5, §6, §7
# T3 sequence (P35462 whole entry): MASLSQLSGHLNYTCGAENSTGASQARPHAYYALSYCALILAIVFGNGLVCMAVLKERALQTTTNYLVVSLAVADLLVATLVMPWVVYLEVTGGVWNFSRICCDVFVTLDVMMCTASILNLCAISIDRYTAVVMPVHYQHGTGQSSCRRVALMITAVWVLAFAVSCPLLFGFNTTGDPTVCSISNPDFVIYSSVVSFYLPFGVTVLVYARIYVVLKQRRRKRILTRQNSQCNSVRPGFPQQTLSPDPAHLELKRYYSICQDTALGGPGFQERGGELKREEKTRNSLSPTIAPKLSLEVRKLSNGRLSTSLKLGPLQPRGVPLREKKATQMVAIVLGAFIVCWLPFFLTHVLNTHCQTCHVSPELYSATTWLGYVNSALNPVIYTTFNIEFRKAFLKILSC
# T2 sequence (P35462 whole entry): as above
# T1 sequence (P28223 whole entry): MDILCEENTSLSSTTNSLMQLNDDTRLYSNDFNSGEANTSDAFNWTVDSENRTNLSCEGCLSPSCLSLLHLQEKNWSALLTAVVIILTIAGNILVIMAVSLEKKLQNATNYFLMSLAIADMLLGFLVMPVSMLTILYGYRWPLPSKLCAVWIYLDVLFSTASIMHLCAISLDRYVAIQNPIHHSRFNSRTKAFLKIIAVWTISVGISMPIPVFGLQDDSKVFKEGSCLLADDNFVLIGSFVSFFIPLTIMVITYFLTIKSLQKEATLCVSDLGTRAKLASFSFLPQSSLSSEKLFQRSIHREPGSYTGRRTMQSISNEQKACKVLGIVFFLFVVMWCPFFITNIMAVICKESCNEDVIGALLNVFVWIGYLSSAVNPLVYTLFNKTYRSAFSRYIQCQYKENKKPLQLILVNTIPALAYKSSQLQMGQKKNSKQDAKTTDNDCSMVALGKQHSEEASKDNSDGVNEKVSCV
"Remaining (%, 120 min) [1] [%]",half-life at 1 μM [1] [h],microsomal CLint at 1 μM [1] [µL/min/mg],pIC50 (5-HT2A receptor [2]),pEC50 (D3 receptor),pIC50 (5-HT2A receptor [3]),pIC50 [4],"Remaining (%, 120 min) [5] [%]",half-life at 1 μM [5] [h],microsomal CLint at 1 μM [5] [µL/min/mg],"Remaining (%, 120 min) [6] [%]",half-life at 1 μM [6] [h],microsomal CLint at 1 μM [6] [µL/min/mg],SMILES
61.2,1.27,45.4,–,–,–,–,–,–,–,–,–,–,"CN(C)C(=O)NC1CC(CCN2CCN(c3cccc4sccc34)CC2)C1 (stereo not drawn) [Example 6, 3-(3-(2-(4-(Benzo[b]thiophen-4-yl)piperazin-1-yl)ethyl)cyclobutyl)-1,1-dimethylurea]"
–,–,–,7.38,9.40,7.41,9.02,–,–,–,–,–,–,CC(C)(O)C(=O)N[C@H]1C[C@H](CCN2CCN(c3cccc(Cl)c3Cl)CC2)C1 [Example 11A]
63.0,1.55,37.2,–,–,–,–,–,–,–,–,–,–,"O=C(NC1CC(CCN2CCN(c3cccc(Cl)c3Cl)CC2)C1)C1(O)CC1 (stereo not drawn) [Example 13, N-(3-(2-(4-(2,3-Dichlorophenyl)piperazin-1-yl)ethyl)cyclobutyl)-1-hydroxycyclopropane-1-carboxamide]"
42.8,1.77,13.1,–,–,–,–,25.4,1,23.1,29.2,1.18,19.6,"O=C(N[C@H]1C[C@H](CCN2CCN(c3cccc(Cl)c3Cl)CC2)C1)c1ncco1 [Example 20A, N-(Trans-3-(2-(4-(2,3-dichlorophenyl)piperazin-1-yl)ethyl)cyclobutyl)oxazole-2-carboxamide]"
53.3,2.31,10,–,–,–,–,–,–,–,–,–,–,"O=C(N[C@H]1C[C@H](CCN2CCN(c3cccc(Cl)c3Cl)CC2)C1)C1(O)CC1 [Example 13A, N-(Trans-3-(2-(4-(2,3-dichlorophenyl)piperazin-1-yl)ethyl)cyclobutyl)-1-hydroxycyclopropane-1-carboxamide]"
34.4,1.29,18,–,–,–,–,19.1,0.878,26.3,21.4,0.835,27.7,"CN(C)C(=O)N[C@H]1CC[C@H](CCN2CCN(c3cccc(Cl)c3Cl)CC2)CC1 [Cariprazine, reference compound]"
79.5,3.16,18.3,–,–,–,–,–,–,–,–,–,–,"CC(C)(O)CC(=O)NC1CC(CCN2CCN(c3cccc(Cl)c3Cl)CC2)C1 (stereo not drawn) [Example 15, N-(3-(2-(4-(2,3-Dichlorophenyl)piperazin-1-yl)ethyl)cyclobutyl)-3-hydroxy-3-methylbutanamide]"
–,–,–,8.74,8.77,8.37,9.48,–,–,–,–,–,–,Cc1ncc(C(=O)N[C@H]2C[C@H](CCN3CCN(c4cccc(Cl)c4Cl)CC3)C2)o1 [Example 24A]
–,–,–,8.87,9.05,8.36,9.47,–,–,–,–,–,–,Cc1cc(C(=O)N[C@H]2C[C@H](CCN3CCN(c4cccc(Cl)c4Cl)CC3)C2)on1 [Example 22A]
